Assay results: paper PMC5863483, “Low HLA binding of diabetes-associated CD8+ T-cell epitopes is increased by post translational modifications” (BMC Immunology, 2018)
Where a SMILES comes first, the peptide text is derived from it. [ ]: non-standard residue; d: D form. Cit = NC(=O)NCCC[C@H](N)C(=O)O

Target: HLA-A*02:01 (Homo sapiens, UniProt P04439, D140Y/D185E/D98H/E176V/E277Q/G131W/G231S/I119V/I121R/I166T/I218V/L300P/L318F/N151K/N90K/P208A/P217A/Q86G/Q94H/R138H/R169H/T345S)
Experiment: HLA-peptide competition binding assay, A*02:01
Conditions: not given

Compound | IC50 [nM]
CC(C)C[C@H](NC(=O)[C@H](C)N)C(=O)N[C@@H](Cc1ccc(O)cc1)C(=O)N[C@@H](CC(C)C)C(=O)N[C@H](C(=O)N[C@@H](CS)C(=O)NCC(=O)N[C@@H](CCC(=O)O)C(=O)N[C@@H](CCCNC(N)=O)C(=O)O)C(C)C | 1240
C[C@@H](O)[C@H](NC(=O)[C@H](CCCCN)NC(=O)[C@@H]1CCCN1C(=O)[C@@H](NC(=O)[C@H](Cc1ccc(O)cc1)NC(=O)[C@H](Cc1ccccc1)NC(=O)[C@H](Cc1ccccc1)NC(=O)CN)[C@@H](C)O)C(=O)N[C@@H](CCCNC(N)=O)C(=O)O | 38400
C[C@@H](O)[C@H](NC(=O)[C@H](CCCCN)NC(=O)[C@@H]1CCCN1C(=O)[C@@H](NC(=O)[C@H](Cc1ccc(O)cc1)NC(=O)[C@H](Cc1ccccc1)NC(=O)[C@H](Cc1ccccc1)NC(=O)CNC(=O)[C@@H](N)CCCNC(N)=O)[C@@H](C)O)C(=O)O | 27300
CC(C)C[C@H](NC(=O)[C@H](C)NC(=O)[C@@H](N)CCC(=O)O)C(=O)N[C@@H](Cc1ccc(O)cc1)C(=O)N[C@@H](CC(C)C)C(=O)N[C@H](C(=O)N[C@@H](CS)C(=O)NCC(=O)N[C@@H](CCC(=O)O)C(=O)N[C@@H](CCCNC(N)=O)C(=O)O)C(C)C (H-EALYLVCGE[Cit]-OH) | 3100

Same assay, conditions: post-translationally modified insulin peptide; competition binding assay; a dash indicates IC50 >40,000 nM; read-out: A*02:01 binding (IC50 nM) Modified

Compound | IC50 [nM]
CC(C)C[C@H](NC(=O)[C@H](C)N)C(=O)N[C@@H](CCC(=O)O)C(=O)NCC(=O)N[C@@H](CO)C(=O)N[C@@H](CC(C)C)C(=O)N[C@@H](CCC(N)=O)C(=O)N[C@@H](CCCCN)C(=O)N[C@@H](CCCNC(N)=O)C(=O)O (H-ALEGSLQK[Cit]-OH; N-terminus and C-terminus assumed) | > 40000
CC(C)C[C@H](NC(=O)[C@H](C)N)C(=O)N[C@@H](CCC(=O)O)C(=O)NCC(=O)N[C@@H](CO)C(=O)N[C@@H](CC(C)C)C(=O)N[C@@H](CCC(N)=O)C(=O)N[C@@H](CCCCN)C(=O)N[C@@H](CCCNC(N)=O)C(=O)NCC(=O)O (H-ALEGSLQK[Cit]G-OH; N-terminus and C-terminus assumed) | > 40000
CC[C@H](C)[C@H](NC(=O)CNC(=O)[C@H](CCCNC(N)=O)NC(=O)[C@H](CCCCN)NC(=O)[C@H](CCC(N)=O)NC(=O)[C@H](CC(C)C)NC(=O)[C@H](CO)NC(=O)CNC(=O)[C@@H](N)CCC(=O)O)C(=O)O (H-EGSLQK[Cit]GI-OH; N-terminus and C-terminus assumed) | > 40000
CC[C@H](C)[C@H](NC(=O)CNC(=O)[C@H](CCCNC(N)=O)NC(=O)[C@H](CCCCN)NC(=O)[C@H](CCC(N)=O)NC(=O)[C@H](CC(C)C)NC(=O)[C@H](CO)NC(=O)CNC(=O)[C@@H](N)CCC(=O)O)C(=O)N[C@H](C(=O)O)C(C)C (H-EGSLQK[Cit]GIV-OH; N-terminus and C-terminus assumed) | > 40000
C[C@@H](O)[C@H](NC(=O)[C@H](CCCCN)NC(=O)[C@@H]1CCCN1C(=O)[C@@H](NC(=O)[C@H](Cc1ccc(O)cc1)NC(=O)[C@@H](N)Cc1ccccc1)[C@@H](C)O)C(=O)N[C@@H](CCCNC(N)=O)C(=O)N[C@@H](CCCNC(N)=O)C(=O)N[C@@H](CCC(=O)O)C(=O)O (H-FYTPKT[Cit][Cit]E-OH; N-terminus and C-terminus assumed) | > 40000
C[C@H](NC(=O)[C@H](CCC(=O)O)NC(=O)[C@H](CCCNC(N)=O)NC(=O)[C@H](CCCNC(N)=O)NC(=O)[C@@H](NC(=O)[C@H](CCCCN)NC(=O)[C@@H]1CCCN1C(=O)[C@@H](NC(=O)[C@H](Cc1ccc(O)cc1)NC(=O)[C@@H](N)Cc1ccccc1)[C@@H](C)O)[C@@H](C)O)C(=O)O (H-FYTPKT[Cit][Cit]EA-OH; N-terminus and C-terminus assumed) | > 40000
CC[C@H](C)[C@H](NC(=O)CNC(=O)[C@H](CCCNC(N)=O)NC(=O)[C@H](CCCCN)NC(=O)[C@H](CCC(N)=O)NC(=O)[C@H](CC(C)C)NC(=O)[C@H](CO)NC(=O)CN)C(=O)N[C@H](C(=O)O)C(C)C (H-GSLQK[Cit]GIV-OH; N-terminus and C-terminus assumed) | > 40000

Next, values leading:

IC50 [nM] | Compound
> 40000 | C[C@@H](O)[C@H](NC(=O)[C@H](Cc1ccc(O)cc1)NC(=O)[C@H](Cc1ccccc1)NC(=O)[C@H](Cc1ccccc1)NC(=O)CNC(=O)[C@H](CCCNC(N)=O)NC(=O)[C@H](CCC(=O)O)NC(=O)CNC(=O)[C@@H](N)CS)C(=O)O (H-CGE[Cit]GFFYT-OH; N-terminus and C-terminus assumed)
> 40000 | C[C@@H](O)[C@H](NC(=O)[C@H](Cc1ccc(O)cc1)NC(=O)[C@H](Cc1ccccc1)NC(=O)[C@H](Cc1ccccc1)NC(=O)CNC(=O)[C@H](CCCNC(N)=O)NC(=O)[C@H](CCC(=O)O)NC(=O)CNC(=O)[C@@H](N)CS)C(=O)N1CCC[C@H]1C(=O)O (H-CGE[Cit]GFFYTP-OH; N-terminus and C-terminus assumed)
> 40000 | C[C@@H](O)[C@H](NC(=O)[C@H](CCCCN)NC(=O)[C@@H]1CCCN1C(=O)[C@@H](NC(=O)[C@H](Cc1ccc(O)cc1)NC(=O)[C@H](Cc1ccccc1)NC(=O)[C@@H](N)Cc1ccccc1)[C@@H](C)O)C(=O)N[C@@H](CCCNC(N)=O)C(=O)N[C@@H](CCCNC(N)=O)C(=O)O (H-FFYTPKT[Cit][Cit]-OH; N-terminus and C-terminus assumed)
> 40000 | C[C@@H](O)[C@H](NC(=O)[C@H](Cc1ccc(O)cc1)NC(=O)[C@H](Cc1ccccc1)NC(=O)[C@H](Cc1ccccc1)NC(=O)CNC(=O)[C@H](CCCNC(N)=O)NC(=O)[C@H](CCC(=O)O)NC(=O)CN)C(=O)N1CCC[C@H]1C(=O)O (H-GE[Cit]GFFYTP-OH; N-terminus and C-terminus assumed)

Same assay, conditions: post-translationally modified insulin-derived peptide; radiolabeled ligand competition, purified MHC, two-day incubation, three or more independent experiments; read-out: A*02:01 binding, Modified

IC50 [nM] | Compound
12500 | CC(C)C[C@H](NC(=O)[C@H](Cc1ccc(O)cc1)NC(=O)[C@@H](N)CC(C)C)C(=O)N[C@H](C(=O)N[C@@H](CS)C(=O)NCC(=O)N[C@@H](CCC(=O)O)C(=O)N[C@@H](CCCNC(N)=O)C(=O)NCC(=O)O)C(C)C
28 | CSCC[C@H](NC(=O)[C@H](Cc1c[nH]c2ccccc12)NC(=O)[C@H](CC(C)C)NC(=O)[C@H](C)N)C(=O)N[C@@H](CCCNC(N)=O)C(=O)N[C@@H](CC(C)C)C(=O)N[C@@H](CC(C)C)C(=O)N1CCC[C@H]1C(=O)N[C@@H](CC(C)C)C(=O)O (H-ALWM[Cit]LLPL-OH)
69 | CSCC[C@H](NC(=O)[C@H](Cc1c[nH]c2ccccc12)NC(=O)[C@H](CC(C)C)NC(=O)[C@H](C)N)C(=O)N[C@@H](CCCNC(N)=O)C(=O)N[C@@H](CC(C)C)C(=O)N[C@@H](CC(C)C)C(=O)N1CCC[C@H]1C(=O)N[C@@H](CC(C)C)C(=O)N[C@@H](CC(C)C)C(=O)O (H-ALWM[Cit]LLPLL-OH)

Same assay, conditions: read-out: A*02:01 binding (IC50 nM) Modified

IC50 [nM] | Compound
38100 | C[C@@H](O)[C@H](NC(=O)[C@H](Cc1ccc(O)cc1)NC(=O)[C@H](Cc1ccccc1)NC(=O)[C@H](Cc1ccccc1)NC(=O)CNC(=O)[C@H](CCCNC(N)=O)NC(=O)[C@@H](N)CCC(=O)O)C(=O)N1CCC[C@H]1C(=O)N[C@@H](CCCCN)C(=O)O (H-E[Cit]GFFYTPK-OH)
28300 | C[C@@H](O)[C@H](NC(=O)[C@H](CCCCN)NC(=O)[C@@H]1CCCN1C(=O)[C@@H](NC(=O)[C@H](Cc1ccc(O)cc1)NC(=O)[C@H](Cc1ccccc1)NC(=O)[C@@H](N)Cc1ccccc1)[C@@H](C)O)C(=O)N[C@@H](CCCNC(N)=O)C(=O)N[C@@H](CCCNC(N)=O)C(=O)N[C@@H](CCC(=O)O)C(=O)O (H-FFYTPKT[Cit][Cit]E-OH)

Same assay, conditions: read-out: A*02:01 binding (IC50 nM) WT

IC50 [nM] | Compound
12200 | C[C@@H](O)[C@H](NC(=O)[C@H](CCCCN)NC(=O)[C@@H]1CCCN1C(=O)[C@@H](NC(=O)[C@H](Cc1ccc(O)cc1)NC(=O)[C@H](Cc1ccccc1)NC(=O)[C@H](Cc1ccccc1)NC(=O)CN)[C@@H](C)O)C(=O)N[C@@H](CCCNC(=N)N)C(=O)O

Same assay, conditions: unmodified (WT) insulin peptide; competition binding assay; a dash indicates IC50 >40,000 nM; read-out: A*02:01 binding (IC50 nM) WT

IC50 [nM] | Compound
> 40000 | C[C@@H](O)[C@H](NC(=O)[C@H](CCCCN)NC(=O)[C@@H]1CCCN1C(=O)[C@@H](NC(=O)[C@H](Cc1ccc(O)cc1)NC(=O)[C@H](Cc1ccccc1)NC(=O)[C@H](Cc1ccccc1)NC(=O)CNC(=O)[C@H](CCCNC(=N)N)NC(=O)[C@@H](N)CCC(=O)O)[C@@H](C)O)C(=O)O
> 40000 | C[C@@H](O)[C@H](NC(=O)[C@H](Cc1ccc(O)cc1)NC(=O)[C@H](Cc1ccccc1)NC(=O)[C@H](Cc1ccccc1)NC(=O)CNC(=O)[C@H](CCCNC(=N)N)NC(=O)[C@H](CCC(=O)O)NC(=O)CN)C(=O)N1CCC[C@H]1C(=O)N[C@@H](CCCCN)C(=O)O
> 40000 | C[C@@H](O)[C@H](NC(=O)[C@H](CCCCN)NC(=O)[C@@H]1CCCN1C(=O)[C@@H](NC(=O)[C@H](Cc1ccc(O)cc1)NC(=O)[C@H](Cc1ccccc1)NC(=O)[C@H](Cc1ccccc1)NC(=O)CN)[C@@H](C)O)C(=O)N[C@@H](CCCNC(=N)N)C(=O)N[C@@H](CCCNC(=N)N)C(=O)O
> 40000 | C[C@@H](O)[C@H](NC(=O)[C@H](CCCCN)NC(=O)[C@@H]1CCCN1C(=O)[C@@H](NC(=O)[C@H](Cc1ccc(O)cc1)NC(=O)[C@H](Cc1ccccc1)NC(=O)[C@H](Cc1ccccc1)NC(=O)CNC(=O)[C@@H](N)CCCNC(=N)N)[C@@H](C)O)C(=O)O
> 40000 | C[C@@H](O)[C@H](NC(=O)[C@H](CCCCN)NC(=O)[C@@H]1CCCN1C(=O)[C@@H](NC(=O)[C@H](Cc1ccc(O)cc1)NC(=O)[C@H](Cc1ccccc1)NC(=O)[C@H](Cc1ccccc1)NC(=O)CNC(=O)[C@@H](N)CCCNC(=N)N)[C@@H](C)O)C(=O)N[C@@H](CCCNC(=N)N)C(=O)O

Same assay, conditions: unmodified (wild type) insulin-derived peptide; radiolabeled ligand competition, purified MHC, two-day incubation, three or more independent experiments; read-out: A*02:01 binding, WT

IC50 [nM] | Compound
8780 | CC(C)C[C@H](NC(=O)[C@H](C)N)C(=O)N[C@@H](Cc1ccc(O)cc1)C(=O)N[C@@H](CC(C)C)C(=O)N[C@H](C(=O)N[C@@H](CS)C(=O)NCC(=O)N[C@@H](CCC(=O)O)C(=O)N[C@@H](CCCNC(=N)N)C(=O)NCC(=O)O)C(C)C
> 40000 | C[C@@H](O)[C@H](NC(=O)[C@H](CCCCN)NC(=O)[C@@H]1CCCN1C(=O)[C@@H](NC(=O)[C@H](Cc1ccc(O)cc1)NC(=O)[C@H](Cc1ccccc1)NC(=O)[C@H](Cc1ccccc1)NC(=O)CNC(=O)[C@H](CCCNC(=N)N)NC(=O)[C@@H](N)CCC(=O)O)[C@@H](C)O)C(=O)O
> 40000 | C[C@@H](O)[C@H](NC(=O)[C@H](CCCCN)NC(=O)[C@@H]1CCCN1C(=O)[C@@H](NC(=O)[C@H](Cc1ccc(O)cc1)NC(=O)[C@H](Cc1ccccc1)NC(=O)[C@H](Cc1ccccc1)NC(=O)CNC(=O)[C@@H](N)CCCNC(=N)N)[C@@H](C)O)C(=O)O
